pIC50: −log10 of the molar value. Like-named read-outs stand apart in the source and are kept apart here. Blank lines part the entries; values can stand above or below the compound they belong to.
Tested on: HIF-1-mediated transcription
Assay: HIF-1-mediated transcription under hypoxia, LN229-HRE-Lux luciferase reporter assay
Assay type: cell-based, human
Conditions: LN229-HRE-Lux cells, hypoxia (1% O2)
Method: The synthesized analogues were evaluated for their potential to inhibit HIF-1-mediated transcription under hypoxia (1% O2) using a human glioma cell line LN229-HRE-Lux, which stably expresses a hypoxia-responsive luciferase reporter gene (Table 1-9). […] The compounds were tested in single (n=1) or multiple (n>1) independent experiments each carried out in quadruplicate.
LN229-HRE-luciferase human glioblastoma cells were used to perform the assay. […] 48-well plates were seeded with 3.10^4 cells per well and incubated under normoxic conditions for 24 h. Cells were then pre-treated with different concentrations of KCN-1 or its analogues for 1 h and then transferred to hypoxic conditions. After 24 h, media was aspirated, cells were lysed and reporter activity was measured in the lysate using Luciferase Assay System (Promega, Madison, Wis.) with 20/20^n Luminometer (Promega).

[1] = Homo sapiens, 24 h, Table 1, 24 h, read-out: IC50
[2] = Homo sapiens, 24 h, 24 h, read-out: IC50
[3] = Homo sapiens, 24 h, Table 2, 24 h, read-out: IC50
[4] = Homo sapiens, 24 h, Table 3, 24 h, read-out: IC50
[5] = Homo sapiens, 24 h, Table 4, 24 h, read-out: IC50
[6] = Homo sapiens, 24 h, Table 5, 24 h, read-out: IC50
[7] = Homo sapiens, 24 h, Table 6, 24 h, read-out: IC50
[8] = Homo sapiens, 24 h, Table 7, 24 h, results from single runs, read-out: IC50

Structure (SMILES): COc1ccc(NCc2ccc3c(c2)C=CC(C)(C)O3)cc1OC [Compound 2a, (3,4-Dimethoxy-phenyl)-(2,2-dimethyl-2H-chromen-6-ylmethyl)-amine]
pIC50 [1]: 5.52

Structure (SMILES): Cc1ccc(NCc2ccc3c(c2)C=CC(C)(C)O3)c(C)c1 [Compound 2c, (2,2-Dimethyl-2H-chromen-6-ylmethyl)-(2,4-dimethyl-phenyl)-amine]
pIC50 [1]: < 4.60

Structure (SMILES): COc1ccc(N(C)Cc2ccc3c(c2)C=CC(C)(C)O3)cc1OC [Compound 3a, (3,4-Dimethoxy-phenyl)-(2,2-dimethyl-2H-chromen-6-ylmethyl)-methylamine]
pIC50 [1]: 5.30

Structure (SMILES): CN(Cc1ccc2c(c1)C=CC(C)(C)O2)c1ccccn1 [Compound 3b, (2,2-Dimethyl-2H-chromen-6-ylmethyl)-methyl-pyridin-2-yl-amine]
pIC50 [1]: 5.08

Structure (SMILES): Cc1ccc(N(C)Cc2ccc3c(c2)C=CC(C)(C)O3)c(C)c1 [Compound 3c, (2,2-Dimethyl-2H-chromen-6-ylmethyl)-(2,4-dimethyl-phenyl)-methyl-amine]
pIC50 [1]: 5.59
pIC50 [2]: 5.59

Structure (SMILES): C#CCN(Cc1ccc2c(c1)C=CC(C)(C)O2)S(=O)(=O)c1ccc(OC)c(OC)c1 [Compound 5b, N-(2,2-Dimethyl-2H-chromen-6-ylmethyl)-3,4-dimethoxy-N-prop-2-ynyl-benzenesulfonamide]
pIC50 [3]: 5.89
pIC50 [2]: 5.89

Structure (SMILES): CCCCN(Cc1ccc2c(c1)C=CC(C)(C)O2)S(=O)(=O)c1ccc(OC)c(OC)c1 [Compound 5c, N-Butyl-N-(2,2-dimethyl-2H-chromen-6-ylmethyl)-3,4-dimethoxy-benzenesulfonamide]
pIC50 [3]: 5.48
pIC50 [2]: 5.48

Structure (SMILES): COc1ccc(S(=O)(=O)N(Cc2ccc3c(c2)C=CC(C)(C)O3)C(C)(C)C)cc1OC [Compound 5d, N-tert-Butyl-N-(2,2-dimethyl-2H-chromen-6-ylmethyl)-3,4-dimethoxy-benzenesulfonamide]
pIC50 [3]: 5.46
pIC50 [2]: 5.46

Structure (SMILES): C=CCN(Cc1ccc2c(c1)C=CC(C)(C)O2)S(=O)(=O)c1ccc(OC)c(OC)c1 [Compound 5e, N-Allyl-N-(2,2-dimethyl-2H-chromen-6-ylmethyl)-3,4-dimethoxy-benzenesulfonamide]
pIC50 [3]: 5.47

Structure (SMILES): COc1ccc(S(=O)(=O)N(CCC(C)C)Cc2ccc3c(c2)C=CC(C)(C)O3)cc1OC [Compound 5f, N-(2,2-Dimethyl-2H-chromen-6-ylmethyl)-3,4-dimethoxy-N-(3-methyl-butyl)-benzenesulfonamide]
pIC50 [3]: 5.80

Structure (SMILES): COc1ccc(S(=O)(=O)N(Cc2ccc3c(c2)C=CC(C)(C)O3)C2CCCC2)cc1OC [Compound 5g, N-Cyclopentyl-N-(2,2-dimethyl-2H-chromen-6-ylmethyl)-3,4-dimethoxy-benzenesulfonamide]
pIC50 [3]: 6.30
pIC50 [2]: 5.80

Structure (SMILES): COc1ccc(S(=O)(=O)N(Cc2ccc3c(c2)C=CC(C)(C)O3)C2CC2)cc1OC [Compound 5h, Cyclopropyl-N-(2,2-dimethyl-2H-chromen-6-ylmethyl)-3,4-dimethoxy-benzenesulfonamide]
pIC50 (Table 2, 24 h, read-out: IC50): 5.82

Structure (SMILES): COc1ccc(S(=O)(=O)N(Cc2ccc3c(c2)C=CC(C)(C)O3)c2ccccc2)cc1 [Compound 5j, N-((2,2-Dimethyl-2H-chromen-6-yl)methyl)-4-methoxy-N-phenylbenzenesulfonamide]
pIC50 [4]: 6.22

Structure (SMILES): Cc1cc(C)cc(S(=O)(=O)N(Cc2ccc3c(c2)C=CC(C)(C)O3)c2ccccc2)c1 [Compound 5k, N-((2,2-Dimethyl-2H-chromen-6-yl)methyl)-3,5-dimethyl-N-phenylbenzenesulfonamide]
pIC50 [4]: 6.30
pIC50 [2]: 6.22

Structure (SMILES): CC1(C)C=Cc2cc(CN(c3ccccc3)S(=O)(=O)c3cc(Cl)ccc3Cl)ccc2O1 [Compound 5l, 2,5-Dichloro-N-((2,2-dimethyl-2H-chromen-6-yl)methyl)-N-phenylbenzenesulfonamide]
pIC50 [4]: 5.68

Structure (SMILES): CC1(C)C=Cc2cc(CN(c3ccccc3)S(=O)(=O)c3ccc(Br)cc3OC(F)(F)F)ccc2O1 [Compound 5m, 4,4-Bromo-N-((2,2-dimethyl-2H-chromen-6-yl)methyl)-N-phenyl-2-(trifluoromethoxy)benzenesulfonamide]
pIC50 [4]: < 4.60

Structure (SMILES): COc1ccc(S(=O)(=O)N(Cc2cnc3ccccc3c2)c2ccccc2)cc1OC [Compound 13, 3,4-Dimethoxy-N-phenyl-N-(quinolin-3-ylmethyl)benzenesulfonamide]
pIC50 [5]: 5.89
pIC50 [2]: 5.46

Structure (SMILES): COc1ccc(S(=O)(=O)N(Cc2ccc3c(c2)CC(C)(C)O3)c2ccccc2)cc1OC [Compound 16a, N-((2,2-Dimethyl-2,3-dihydrobenzofuran-5-yl)methyl)-3,4-dimethoxy-N-phenylbenzenesulfonamide]
pIC50 [6]: 6.30

Structure (SMILES): COc1ccc(S(=O)(=O)N(Cc2ccc3c(c2)CC(C)(C)O3)C2CCCCCC2)cc1OC [Compound 16b, N-Cycloheptyl-N-((2,2-dimethyl-2,3-dihydrobenzofuran-5-yl)methyl)-3,4dimethoxybenzenesulfonamide]
pIC50 [6]: 5.04
pIC50 [2]: 5.04

Structure (SMILES): COc1ccc(S(=O)(=O)N(Cc2ccc3c(c2)CC(C)(C)O3)C2CCCCC2)cc1OC [Compound 16e, N-Cyclohexyl-N-((2,2-dimethyl-2,3-dihydrobenzofuran-5-yl)methyl)-3,4-dimethoxybenzenesulfonamide]
pIC50 (Homo sapiens, 24 h, Table 5): 5.09
pIC50 (Homo sapiens, 24 h): 5.09

Structure (SMILES): COc1ccc(S(=O)(=O)N(Cc2ccc3c(c2)CC(C)(C)O3)C2CCCC2)cc1OC [Compound 16f, N-Cyclopentyl-N-((2,2-dimethyl-2,3-dihydrobenzofuran-5-yl)methyl)-3,4-dimethoxybenzenesulfonamide]
pIC50 [6]: 6.40
pIC50 [2]: 6.40

Structure (SMILES): COc1ccc(S(=O)(=O)N(Cc2cnc3c(c2)C=CC(C)(C)O3)c2ccccc2)cc1OC [Compound 20a, N-((2,2-Dimethyl-2H-pyrano[2,3-b]pyridin-6-yl)methyl)-3,4-dimethoxy-N-phenylbenzenesulfonamide]
pIC50 [7]: 5.60
pIC50 [2]: 5.60

Structure (SMILES): COc1ccc(S(=O)(=O)N(Cc2ccc3c(n2)C=CC(C)(C)O3)c2ccccc2)cc1OC [Compound 26a, N-((2,2-dimethyl-2H-pyrano[3,2-b]pyridin-6-yl)methyl)-3,4-dimethoxy-N-phenylbenzenesulfonamide]
pIC50 [8]: 5.89
pIC50 (Homo sapiens, unit inferred, read-out: IC50): 5.89

The remaining lines, values ahead:

pIC50 [1]: < 4.60
Structure (SMILES): CC1(C)C=Cc2cc(CNc3ccc(C(=O)O)cc3)ccc2O1 [Compound 2d, 4-[(2,2-Dimethyl-2H-chromen-6-ylmethyl)-amino]-benzoic acid]

pIC50 [1]: < 4.60
Structure (SMILES): CC1(C)C=Cc2cc(CNc3ccccc3Br)ccc2O1 [Compound 2e, (2-Bromo-phenyl)-(2,2-dimethyl-2H-chromen-6-ylmethyl)-amine]

pIC50 [1]: < 4.60
Structure (SMILES): CC1(C)C=Cc2cc(CNc3ccccc3F)ccc2O1 [Compound 2f, (2,2-Dimethyl-2H-chromen-6-ylmethyl)-(2-fluoro-phenyl)-amine]

pIC50 [3]: 5.51
Structure (SMILES): COc1ccc(S(=O)(=O)N(Cc2ccc3c(c2)C=CC(C)(C)O3)C(C)C)cc1OC [Compound 5a, N-(2,2-Dimethyl-2H-chromen-6-ylmethyl)-N-isopropyl-3,4-dimethoxy-benzenesulfonamide]

pIC50 [3]: 5.40
Structure (SMILES): COc1ccc(S(=O)(=O)N(Cc2ccc3c(c2)C=CC(C)(C)O3)C2CCCCC2)cc1OC [Compound 5i, N-Cyclohexyl-N-(2,2-dimethyl-2H-chromen-6-ylmethyl)-3,4-dimethoxy-benzenesulfonamide]

pIC50 [5]: 5.51
pIC50 [2]: 5.66
Structure (SMILES): CCC1(C)C=Cc2cc(CN(c3ccccc3)S(=O)(=O)c3ccc(OC)c(OC)c3)ccc2O1 (stereo not shown) [Compound 10, N-((2-Ethyl-2-methyl-2H-chromen-6-yl)methyl)-3,4-dimethoxy-N-phenylbenzenesulfonamide]

pIC50 [6]: 5.82
Structure (SMILES): COc1ccc(S(=O)(=O)N(Cc2ccc3c(c2)CC(C)(C)O3)C(C)C)cc1OC [Compound 16c, N-((2,2-dimethyl-2,3-dihydrobenzofuran-5-yl)methyl)-N-isopropyl-3,4-dimethoxybenzenesulfonamide]

pIC50 [6]: 6.22
Structure (SMILES): CCCCN(Cc1ccc2c(c1)CC(C)(C)O2)S(=O)(=O)c1ccc(OC)c(OC)c1 [Compound 16d, N-Butyl-N-((2,2-dimethyl-2,3-dihydrobenzofuran-5-yl)methyl)-3,4-dimethoxybenzenesulfonamide]

pIC50 [7]: < 4.60
Structure (SMILES): COc1ccc(S(=O)(=O)N(Cc2cnc3c(c2)C=CC(C)(C)O3)C2CCCCC2)cc1OC [Compound 20b, N-Cyclohexyl-N-((2,2-dimethyl-2H-pyrano[2,3-b]pyridin-6-yl)methyl)-3,4-dimethoxybenzenesulfonamide]

pIC50 [8]: 6.05
Structure (SMILES): CCCCN(Cc1ccc2c(n1)C=CC(C)(C)O2)S(=O)(=O)c1ccc(OC)c(OC)c1 [Compound 26b, N-Butyl-N-((2,2-dimethyl-2H-pyrano[3,2-b]pyridin-6-yl)methyl)-3,4-dimethoxybenzenesulfonamide]

Reference: patent US9062072B2, “Inhibitors of HIF and angiogenesis” (Emory University, priority 2010, dated 2015)
